# Laboratory results reported in patent US20240300980A1, “HETEROCYCLIC COMPOUNDS AS KRAS INHIBITOR, AND PREPARATION THEREFOR AND USE THEREOF IN TREATMENT” (SHANGHAI KECHOW PHARMA, INC., priority 2021, published 2024).
# Tested on: AGS cells (KRAS^G12D)
# Assay: Detection of cell proliferation in vitro by MTT/MTS method (cell activity experiment)
# Format: cell-based
# Conditions: Homo sapiens, AGS, 72 h, AGS cells; MTT/MTS; 3 days of drug treatment; read-out: AGS IC50
# Outline: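 After 3-day compound exposure (final DMSO 0.5%), viability of AGS (KRAS G12D) cells, plated 1000/well one day before dosing, was measured at 490 nm following 4 h MTT or MTS incubation. IC50 was fitted from dose–effect curves relative to DMSO-treated wells.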
row,IC50 [µM],Compound
1,> 2.5,"CCc1c(F)ccc2cc(O)cc(-c3ccc4c(N5CC6CCC(C5)[S+]6[O-])nc(OC[C@@]56CCCN5C[C@H](F)C6)nc4c3F)c12 (stereo partly drawn) [Example 162, (1R,5S,8R)-3-(7-(8-ethyl-7-fluoro-3-hydroxynaphthalen-1-yl)-8-fluoro-2-(((2R,7aS)-2-fluorotetrahydro-1H-pyrrolizin-7a(5H)-yl)methoxy)quinazolin-4-yl)-8-thia-3-azabicyclo[3.2.1]octane 8-oxide]"
2,> 2.5,"CCc1c(F)ccc2cc(O)cc(-c3ccc4c(N5C[C@H]6CC[C@@H](C5)S6(=O)=O)nc(OC[C@@]56CCCN5C[C@H](F)C6)nc4c3F)c12 [Example 163, (1R,5S)-3-(7-(8-ethyl-7-fluoro-3-hydroxynaphthalen-1-yl)-8-fluoro-2-(((2R,7aS)-2-fluorotetrahydro-1H-pyrrolizin-7a(5H)-yl)methoxy)quinazolin-4-yl)-8-thia-3-azabicyclo[3.2.1]octane 8,8-dioxide]"
3,0.3,"Oc1cc(-c2ccc3c(N4C[C@H]5CC[C@@H](C4)S5)nc(OC[C@@]45CCCN4C[C@H](F)C5)nc3c2F)c2c(F)c(F)ccc2c1 [Example 164, 4-(4-((1R,5S)-8-thia-3-azabicyclo[3.2.1]octan-3-yl)-8-fluoro-2-(((2R,7aS)-2-fluorotetrahydro-1H-pyrrolizin-7a(5H)-yl)methoxy)quinazolin-7-yl)-5,6-difluoronaphthalen-2-ol]"
4,> 2.5,"[O-][S+]1C2CCC1CN(c1nc(OC[C@@]34CCCN3C[C@H](F)C4)nc3c(F)c(-c4cc(O)cc5ccc(F)c(F)c45)ccc13)C2 (stereo partly drawn) [Example 165, (1R,5S,8R)-3-(7-(7,8-difluoro-3-hydroxynaphthalen-1-yl)-8-fluoro-2-(((2R,7aS)-2-fluorotetrahydro-1H-pyrrolizin-7a(5H)-yl)methoxy)quinazolin-4-yl)-8-thia-3-azabicyclo[3.2.1]octane 8-oxide]"
5,> 2.5,"O=S1(=O)[C@@H]2CC[C@H]1CN(c1nc(OC[C@@]34CCCN3C[C@H](F)C4)nc3c(F)c(-c4cc(O)cc5ccc(F)c(F)c45)ccc13)C2 [Example 166, (1R,5S)-3-(7-(7,8-difluoro-3-hydroxynaphthalen-1-yl)-8-fluoro-2-(((2R,7aS)-2-fluorotetrahydro-1H-pyrrolizin-7a(5H)-yl)methoxy)quinazolin-4-yl)-8-thia-3-azabicyclo[3.2.1]octane 8,8-dioxide]"
6,0.31,"Oc1cc(-c2ccc3c(N4C[C@H]5CC[C@@H](C4)S5)nc(OC[C@@]45CCCN4C[C@H](F)C5)nc3c2F)c2c(F)cccc2c1 [Example 167, 4-(4-((1R,5S)-8-thia-3-azabicyclo[3.2.1]octan-3-yl)-8-fluoro-2-(((2R,7aS)-2-fluorotetrahydro-1H-pyrrolizin-7a(5H)-yl)methoxy)quinazolin-7-yl)-5-fluoronaphthalen-2-ol]"
7,> 2.5,"[O-][S+]1C2CCC1CN(c1nc(OC[C@@]34CCCN3C[C@H](F)C4)nc3c(F)c(-c4cc(O)cc5cccc(F)c45)ccc13)C2 (stereo partly drawn) [Example 168, (1R,5S,8R)-3-(8-fluoro-7-(8-fluoro-3-hydroxynaphthalen-1-yl)-2-(((2R,7aS)-2-fluorotetrahydro-1H-pyrrolizin-7a(5H)-yl)methoxy)quinazolin-4-yl)-8-thia-3-azabicyclo[3.2.1]octane 8-oxide]"
8,> 2.5,"O=S1(=O)[C@@H]2CC[C@H]1CN(c1nc(OC[C@@]34CCCN3C[C@H](F)C4)nc3c(F)c(-c4cc(O)cc5cccc(F)c45)ccc13)C2 [Example 169, (1R,5S)-3-(8-fluoro-7-(8-fluoro-3-hydroxynaphthalen-1-yl)-2-(((2R,7aS)-2-fluorotetrahydro-1H-pyrrolizin-7a(5H)-yl)methoxy)quinazolin-4-yl)-8-thia-3-azabicyclo[3.2.1]octane 8,8-dioxide]"

row,Compound,IC50 [µM]
1,"N#Cc1c(OC[C@@]23CCCN2C[C@H](F)C3)nc2cc(-c3cccc4ccc(F)c(Cl)c34)ccc2c1N1C[C@H]2CC[C@@H](C1)N2 [Example 170, 4-((1R,5S)-3,8-diazabicyclo[3.2.1]octan-3-yl)-7-(8-chloro-7-fluoronaphthalen-1-yl)-2-(((2R,7aS)-2-fluorotetrahydro-1H-pyrrolizin-7a(5H)-yl)methoxy)quinoline-3-carbonitrile]",1.04
